Data from patent US20240100176A1, “HUMAN INTERLEUKIN-4 RECEPTOR ALPHA ANTIBODY GLUCOCORTICOID CONJUGATES” (Eli Lilly and Company, priority 2022, published 2024).

Columns and labels:
Format in all cases: cell-based
[1] = tested on: anti-CD40 induced proliferation of human primary B cells; test: Glucocorticoid receptor mediated inhibition of anti-CD40 induced B cell proliferation
Method: Human PBMCs were isolated from human blood samples by standard Ficoll-Paque™ plus (GE […]) density gradient centrifugation methods, and primary B cells were isolated from the PBMC suspension by negative selection with EasySep™ Human Naïve B cell Enrichment kit according to the manufacturer's protocol ([…]™ Technologies). […] Cells were then pulsed with [^3H]-thymidine ([…] thymidine/well; PerkinElmer®) for 18 hours at 37° C. and level of [^3H]-thymidine incorporation was measured by a Microplate Counter (MicroBeta 2; PerkinElmer®) and expressed as a […] (CCPM). Statistical analysis was performed using GraphPad Prism 9 and curves were generated by fitting a sigmoidal curve of the log(Ab concentration) vs. the mean percent inhibition of CCPM compared to no stimulation from 2 donors.

[2] = tested on: MDC secretion from Human PBMCs; test: Inhibition of cytokine secretion from human PBMCs; conditions: PBMC; PHA-M/PMA stimulated human PBMCs, 48 hours; 100 nM
Method: (§1) Example 4h. Inhibition of Cytokine secretion from Human PBMCs: PBMCs were isolated from Ficoll-layered blood centrifuged at 400×g for 30 minutes at room temperature. The PBMC layer was washed with sterile RPMI-1640 media (Corning® Cat. #10041CV) and centrifuged at 1500 rpm for 5 min, at 4° C. Red blood cells are lysed by resuspending the cell pellet in 5 mL of ACK Lysing Buffer (GIBCO Cat. #A1049201) and incubating at room temperature for 5 minutes. […] The plates are incubated at 37° C. with 5% CO2 for 48 hours. After the incubation period, plates are centrifuged at 2000 rpm for 1 min and the top 100 μL of the supernatants are removed and stored at −80° C., until ready to perform cytokine detection. Cytokine release is detected using the U-PLEX Custom Biomarker [Human] Multiplex Assay (MESO SCALE DISCOVERY), according to the manufacturer's protocol. Statistical analysis is performed using GraphPad Prism 9. Data was presented as sigmoidal curve fits of the mean of the individual donors' percent inhibition for each cytokine (n=2) vs. the log(Ab concentration) and statistical analysis is performed using GraphPad Prism 9.

[3] = tested on: IL-5 secretion from Human PBMCs; test: Inhibition of cytokine secretion from human PBMCs; conditions: PBMC; PHA-M/PMA stimulated human PBMCs, 48 hours; 100 nM
Method: as §1

[4] = tested on: GM-CSF secretion from Human PBMCs; test: Inhibition of cytokine secretion from human PBMCs; conditions: PBMC; PHA-M/PMA stimulated human PBMCs, 48 hours; 100 nM
Method: as §1

[5] = tested on: IL-4 induced proliferation of human primary B cells; test: Inhibition of IL-4 induced B cell proliferation
Method: Human PBMCs were isolated from human blood samples by standard Ficoll-Paque™ plus (GE […]) density gradient centrifugation methods, and primary B cells were isolated from the PBMC suspension by negative selection with EasySep™ Human Naïve B cell Enrichment kit according to the manufacturer's protocol ([…]™ Technologies). […] Cells were stimulated with Human CD40/TNFRSF5 Antibody (200 ng/mL; R&D SYSTEMS) and with IL-4 recombinant human protein (5 ng/mL; R&D SYSTEMS) for 2 days at 37° C. and 5% CO2. Cells were then pulsed with [^3H]-thymidine ([…] thymidine/well; PerkinElmer®) for 18 hours at 37° C. and level of [^3H]-thymidine incorporation was measured by a Microplate Counter (MicroBeta 2; PerkinElmer®) and expressed as a […] (CCPM). Statistical analysis was performed using GraphPad Prism 9 and curves were generated by fitting a sigmoidal curve of the log (Ab concentration) vs. the mean percent inhibition of CCPM compared to CD40 stimulation alone from two donors.

Cc1ccc(OCc2cccc(N)c2)c(F)c1[C@H]1O[C@@H]2C[C@H]3[C@@H]4CCC5=CC(=O)C=C[C@]5(C)[C@H]4[C@@H](O)C[C@]3(C)[C@]2(C(=O)CO)O1 (single isomer, unassigned) [GC1]
IC50 ([1]; anti-CD40 (200 ng/mL) induced, no IL-4): 3.73 nM
inhibition at 0.1 µM ([1]; read-out: Inhibition of B cell proliferation at 100 nM % inhibition, anti-CD40 induced, 100 nM): 66.5%
inhibition at 0.1 µM [2]: 96.1%
inhibition at 0.1 µM [3]: 97.4%
inhibition at 0.1 µM [4]: 90.8%
inhibition at 0.06667 µM ([5]; Homo sapiens, B-cell, IL-4 induced, 66.67 nM): 25.7%
Inhibition of IL-4 induced B cell proliferation (in words) ([5]; compared to the isotype control): no significant inhibition was observed
